Test results from the CheMixHub ionic liquid set.

Assay: xn = mol fraction of the nth substance listed
Details: 101 kPa

C=CC(=O)OC + CCCC[n+]1ccn(C)c1.F[B-](F)(F)F
Details	viscosity [mPa·s]
293.15 K, x2 = 0.1387	2.163
293.15 K, x2 = 0.9242	108.1
298.15 K, x2 = 0	0.465
303.15 K, x2 = 0.3354	6.16
303.15 K, x2 = 0.4317	11.33
308.15 K, x2 = 0.8484	39.89
313.15 K, x2 = 0	0.36
318.15 K, x2 = 0	0.334
318.15 K, x2 = 0.6532	12.51
318.15 K, x2 = 0.9242	31.5

OCC(F)(F)F + CCCC[n+]1ccn(C)c1.F[B-](F)(F)F
viscosity [mPa·s]
Details	x1 = 0.3913	x1 = 0.5788	x1 = 0.7238	x1 = 0.8247	x1 = 0.9013	x1 = 0.9587	x1 = 1
278.15 K	42.31	15.82	7.33	4.71	3.71	3.42	3.28
283.15 K	34.09	13.39	6.37	4.13	3.25	2.97	2.81
288.15 K	27.93	11.45	5.59	3.66	2.88	2.6	2.42
293.15 K	23.21	9.89	4.95	3.27	2.56	2.29	2.11
298.15 K	19.52	8.63	4.41	2.93	2.3	2.03	1.84
303.15 K	16.61	7.59	3.96	2.65	2.07	1.81	1.62
308.15 K	14.28	6.72	3.57	2.41	1.88	1.62	1.43
313.15 K	12.39	6	3.25	2.21	1.71	1.46	1.27
318.15 K	10.84	5.39	2.97	2.02	1.56	1.33	1.13
323.15 K	9.56	4.87	2.72	1.87	1.43	1.21	1.02
328.15 K	8.49	4.42	2.5	1.72	1.31	1.1	0.925
333.15 K	7.59	4.03	2.31	1.59	1.21	1	0.824

OCC(F)(F)F + CCCC[n+]1ccn(C)c1.F[P-](F)(F)(F)(F)F
viscosity [mPa·s]
Details	x1 = 0.4632	x1 = 0.5646	x1 = 0.7299	x1 = 0.8308	x1 = 0.9417	x1 = 1
278.15 K	51.3	27.28	10.69	6.23	3.8	3.28
283.15 K	40.66	22.32	8.93	5.29	3.26	2.81
288.15 K	32.71	18.39	7.58	4.56	2.84	2.42
293.15 K	26.74	15.36	6.51	3.97	2.49	2.11
298.15 K	22.17	13	5.65	3.49	2.21	1.84
303.15 K	18.63	11.13	4.95	3.09	1.96	1.62
308.15 K	15.84	9.64	4.38	2.76	1.76	1.43
313.15 K	13.61	8.42	3.9	2.49	1.57	1.27
318.15 K	11.81	7.42	3.49	2.25	1.41	1.13
323.15 K	10.34	6.59	3.15	2.05	1.28	1.02
328.15 K	9.12	5.89	2.85	1.88	1.18	0.925
333.15 K	8.1	5.3	2.62	1.73	1.07	0.824
